Results on 36 compounds are retold here after patent US9951033B2, “Tertiary amines for use in the treatment of cardiac disorders” (Universitetet I Oslo, priority 2012, dated 2018).

Data set [1] has as its system metabolically active cells. Kind of data set: Cell viability luminescence assay. The data set is classed as cell-based. Here is the method: Compound toxicity was measured in a luminescence assay that gives a signal proportional to the amount of metabolically active cells in the sample; the assay was performed as described by the supplier. All synthesized compounds were tested in the viability assay, and viability was registered at 24 hours and 72 hours.

Data set [2] has as its system PLB-Ser16 phosphorylation. Kind of data set: PLB-Ser16 phosphorylation in rat neonatal cardiomyocytes after isoproterenol stimulation (western blot). The data set is classed as cell-based. To be noted: 24 hours prior to isoproterenol 100 nM, 5 minutes. Here is the method:
Based on data from studies in cardiomyocytes assay using a peptide that blocks AKAP18δ-PLB interaction, it was expected that effective compounds would also cause disruption of the AKAP18δ-PLB complex and decrease PLB-Ser^16 phosphorylation (Lygren et al. in EMBO Reports, volume 8, issue 11, page 1061-1067 (2007). A small selection of hits from the derivatized compounds were tested in this cell-based assay, performed as described in Lygren et al.
Briefly, compounds were added to primary cultures of rat neonatal cardiomyocytes were added compounds about 24 hour prior stimulation with isoproterenol, and amount of phosphorylated Ser^16-PLB was analyzed by western blotting using a pSer^16-PLB phosphospecific antibody. Actin was used as a loading control.
Rat neonatal cardiomyocytes treated with compounds 24 hours prior stimulation with isoproterenol (100 nM, 5 minutes).
Following on Example 53, two compounds, 2g and 3d (FIGS. 9A,B and 9C, respectively), were tested in more detail for their ability to interfere with phosphorylation of phospholamban after stimulation of neonatal (FIGS. 9A and 9C) or adult (FIG. 9B) primary cultures of cardiomyocytes.

Data set [3] has as its target GST-AKAP18δ: PLB-biotin interaction (Rattus norvegicus (Rat), UniProt Q6JP77). In words: AKAP18δ-PLB AlphaScreen assay. The data set is classed as binding. Here is the method: Stable and optimal assay conditions were determined by cross-titrating GST-AKAP18 δ and biotinylated PLB using 10 μg/ml glutathione acceptor beads and 10 μg/ml streptavidin donor beads in an AlphaScreen assay. The excitation wavelength was 680 nm, with the emission wavelength being 520-560 nm. Signal intensity in each well was registered and the optimal concentration to use was chosen to be the concentration prior to the peak of the signal.
Concentrations to give a reliable signal were determined to be between 2 and 16 nM for AKAP18δ-GST and 4 and 20 nM PLB-biotin for relevant preparations of protein, for example 4 nM and 20 nM, respectively.

Another data set addresses SERCA2 (Rattus norvegicus (Rat), UniProt P11507). Kind of data set: Patch clamp based SERCA2 activity in adult rat cardiomyocytes. The data set is classed as cell-based. The settings on record: mesylate salt, 10 uM, in the presence of cAMP. On the procedure:
Adult rat cardiomyocytes were isolated and perfused with external solution (NaCl 125, CsCl 20, D-glucose 5, MgCl2 1, CaCl2 1.8, Hepes 10, 4-aminopyridine 5, probenecid 2, pH 7.4 by NaCH). Cell dialysis was achieved by 1-2 MΩ patch pipettes, filled with (in mM): CsCl 115, TEACl 20, Hepes 10, MgATP 5, Na2-Phosphocreatinine 5, EGTA 0.04, cAMP 0.005, adjusted to pH=7.2 with CsOH. Compound 2g (mesylate salt dissolved in water) was included at a concentration of 10 uM. Whole-cell Ca fluorescence measured from voltage-clamped cells was performed with Cairn Research Optoscan Monochromator (Excitation 488 nm, emission 515 nm long pass) (Cain Research Ltd., Faverham, UK). By applying 100 ms square voltage step from −45 to 0 mV at 0.125 Hz by an Axociamp 2B amplifier (Axon Instruments, Foster City, Calif., USA), basal Ca transients were recorded, and tau values were obtained by monoexponential fitting of the Ca^2+ extrusion phase from regular transients (τ) and caffeine transients (τcaff) after rapid applications of 10 mM caffeine. SERCA2 rate constant were calculated as: k_SERCA=1/τ−1/τcaff.
(In patch-clamp work, channel activity is measured electrically.)

Data set [4] in a line: Aqueous solubility of tribenzylamine and salts quantified by HPLC (AUC). The data set is classed as physicochemical. To be noted: free base in water. Here is the method: Tribenzylamine and the corresponding salts were dissolved in water and the solubility was quantified (area under curve (AUC)) by HPLC
[5] abbreviates: average ± standard deviation (n = 3) or ± half range (n = 2), read-out: EC50 in μM (n).
Setting [6] is: screening of compound library, read-out: EC50.
The mark [7] stands for this setting: average ± standard deviation (n = 3) or ± half range (n = 2), read-out: EC50 (n).

Like-named read-outs stand apart in the source and are kept apart here.

Chain of GST-AKAP18δ: PLB-biotin interaction (Q6JP77 whole entry): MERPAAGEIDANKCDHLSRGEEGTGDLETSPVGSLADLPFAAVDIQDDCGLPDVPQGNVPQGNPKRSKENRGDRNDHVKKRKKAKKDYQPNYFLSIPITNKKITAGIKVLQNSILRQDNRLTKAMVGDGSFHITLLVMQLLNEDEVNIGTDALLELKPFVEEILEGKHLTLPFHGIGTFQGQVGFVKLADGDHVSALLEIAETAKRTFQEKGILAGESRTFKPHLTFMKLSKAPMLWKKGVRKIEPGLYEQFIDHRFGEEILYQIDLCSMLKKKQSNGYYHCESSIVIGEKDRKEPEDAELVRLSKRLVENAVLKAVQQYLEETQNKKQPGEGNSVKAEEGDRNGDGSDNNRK

Turning to `Oc1ccc(O)c(CN(Cc2ccncc2)Cc2cc(O)ccc2O)c1` [Example 2b], in data set [1], the “Viability (100 μM) 24 hours” value is listed as 0.10. Moreover, the “Effect on PLB phosphorylation in cardiomyocytes” value in data set [2] is on record as “−”. The EC50 (as a rule, the concentration needed to bring the measured effect to its halfway point) in data set [3] (setting [5]) was found to be 12.3 ± 3.08 µM.
With `Fc1ccc(CN(Cc2ccncc2)Cc2ccc(F)cc2)cc1` [Example 2a], the “Viability (100 μM) 24 hours” value in data set [1] is given as 0.85.
With `CC(C)(C)c1ccc(CN(Cc2ccc(F)cc2)Cc2nc(C(=O)O)cs2)cc1`, the concentration for a half-maximal effect (EC50) in data set [3] (setting [6]) was found to be 41.6 µM.
Consider `Oc1ccc(O)c(CN(Cc2ccncc2)Cc2ccc(F)cc2)c1` [Example 3b], for which the “Viability (100 μM) 24 hours” value in data set [1] was 0.03. Further, the EC50 result in data set [3] is “approximately the same as for 2b”; in data set [3] (setting [7]), 5.43 ± 1.11 µM.
With `O=C(O)c1ccc(CN(Cc2ccccc2)Cc2ccc(F)cc2)cc1` [Example 3f], the “Viability (100 μM) 24 hours” value in data set [1] is 0.98. Moreover, in data set [2], the “Effect on PLB phosphorylation in cardiomyocytes” value is listed as “+” and the “effect on PLB phosphorylation in cardiomyocytes” value is “did not appear to have an effect”.
Take `Cc1ccc(NC(=O)Nc2ccc(CN(Cc3ccc(NC(=O)Nc4ccccc4)cc3)Cc3ccc(NC(=O)Nc4ccc(C)cc4)cc3)cc2)cc1`: the 50% effective concentration (EC50) in data set [3] (setting [6]) worked out at 5.2 µM.
For `O=[N+]([O-])c1ccc(CN(Cc2ccccc2)Cc2ccc([N+](=O)[O-])cc2)cc1`, the EC50 in data set [3] (setting [6]) turned out to be 7.5 µM.
On the same count and under the same terms, with `O=C(Nc1ccccc1)Nc1ccc(CN(Cc2ccccc2)Cc2ccc(NC(=O)Nc3ccccc3)cc2)cc1` the figure was 3.6 µM; with `O=C(O)c1csc(CN(Cc2ccc(F)cc2)Cc2cccc(Cl)c2)n1`, 36.4 µM; with `O=C(O)c1csc(CN(Cc2cccc(C(F)(F)F)c2)Cc2ccccc2F)n1`, 216 µM.
On to `CC(C)(C)c1ccc(CN(CCC(c2ccccc2)c2ccccc2)Cc2nc(C(=O)O)cs2)cc1`, for which the concentration giving a half-maximal response (EC50) in data set [3] (setting [6]) was determined as 21.1 µM.
As to `CN(C)c1ccc(CN(Cc2ccccc2)CC(c2ccccc2)c2ccccc2)cc1` [Example 3c], the “Viability (100 μM) 24 hours” value in data set [1] was 0.74. In data set [2], the “Effect on PLB phosphorylation in cardiomyocytes” value is “+” and the “effect on PLB phosphorylation in cardiomyocytes” value is recorded as “somewhat weaker than that of 2g”. For the same compound, the EC50 in data set [3] (setting [7]) was determined as 0.44 ± 0.18 µM. In addition, in data set [3] (read-out: EC50), the EC50 worked out at 0.327 µM.
Take `CN(C)c1ccc(CN(Cc2ccccc2)Cc2ccc(N(C)C)cc2)cc1` [Example 2g]: the “Viability (100 μM) 24 hours” value in data set [1] is 0.56. Besides, in data set [2], the “Effect on PLB phosphorylation in cardiomyocytes” value is “++” and the “effect on PLB phosphorylation in cardiomyocytes” value is listed as “concentration dependent inhibition of PLB-phosphorylation”. For the same compound, the EC50 in data set [3] (setting [5]) worked out at 1.7 ± 0.91 µM. For the same compound, the SERCA2 activity result on SERCA2 was “increased SERCA2 activity”.
In the case of `CN(C)c1ccc(CN(Cc2ccccc2)Cc2ccc3c(c2)CCO3)cc1` [Example 3d], the “Viability (100 μM) 24 hours” value in data set [1] came to 0.58. Besides, the “effect on PLB phosphorylation in cardiomyocytes” value in data set [2] was “did not appear to have an effect”. The EC50 stood at 2.45 ± 0.73 µM in data set [3] (setting [7]) and 2.79 µM in data set [3] (read-out: EC50).
On to `CCN(CC)c1ccc(CN(Cc2ccccc2)Cc2ccc(N(CC)CC)cc2)cc1`, for which, in data set [3] (setting [6]), the EC50 is 2.9 µM.
In the case of `O=C(O)c1csc(CN(Cc2ccc(F)cc2)Cc2ccc(Cl)cc2)n1`, in data set [3] (setting [6]), the EC50 was found to be 94.3 µM.
The same measure, in the same setting: in the case of `Cc1ccc(CN(Cc2cccc(C(F)(F)F)c2)Cc2nc(C(=O)O)cs2)cc1` it was 98.3 µM; in that of `COc1ccc(CN(Cc2ccc(F)cc2)Cc2nc(C(=O)O)cs2)cc1`, 25.6 µM.
Turning to `CC(c1ccccc1)N(Cc1ccc(N(C)C)cc1)Cc1ccc(N(C)C)cc1` (stereo not shown) [Example 2h], the “Viability (100 μM) 24 hours” value in data set [1] is 0.91.
For `Cc1ccc(CN(CCC(c2ccccc2)c2ccccc2)Cc2nc(C(=O)O)cs2)cc1`, the EC50 in data set [3] (setting [6]) is 35.4 µM.
On to `CC(C)(C)c1ccc(CN(Cc2ccncc2)Cc2ccc(F)cc2)cc1` [Example 3a], for which, in data set [1], the “Viability (100 μM) 24 hours” value turned out to be 0.79.
As for `O=C(Nc1ccc(F)cc1)Nc1ccc(CN(Cc2ccccc2)Cc2ccc(NC(=O)Nc3ccc(F)cc3)cc2)cc1`, the EC50 in data set [3] (setting [6]) was determined as 9.3 µM.
As to `Fc1ccc(CN(Cc2ccccc2)Cc2ccc(-c3ccccc3-c3nn[nH]n3)cc2)cc1` [Example 3g], in data set [1], the “Viability (100 μM) 24 hours” value is 0.80. For the same compound, the EC50 in data set [3] (setting [7]) and in data set [3] (read-out: EC50) was 47.1 µM in each case.
Consider `O=C(O)c1csc(CN(Cc2ccc(F)cc2)Cc2ccc(OCc3ccccc3)cc2)n1`, for which the concentration for a half-maximal effect (EC50) in data set [3] (setting [6]) is 39.5 µM.
In the case of `CN(C)c1ccc(CN(Cc2ccccc2)Cc2ccc(N(C)C)cc2)cc1` [drawing 177], the EC50 in data set [3] (setting [6]) is 2 µM.
For `O=C(O)c1csc(CN(Cc2ccc(F)cc2)Cc2cccc(C(F)(F)F)c2)n1`, the EC50 in data set [3] (setting [6]) is 60.5 µM.
Still for that read-out and setting: in the case of `Cc1ccc(CN(Cc2ccc(F)cc2)Cc2nc(C(=O)O)cs2)cc1` it was 137 µM.
Take `c1ccc(CN(Cc2ccccc2)Cc2ccccc2)cc1` [tribenzylamine, Tribenzylamine]: the “AUC Free base” value in data set [4] is “≈0 mAu*s”.
Regarding `COC(=O)c1ccc(CN(Cc2ccccc2)Cc2ccc(F)cc2)cc1` [Example 3e], the “Viability (100 μM) 24 hours” value in data set [1] was 0.57.
Turning to `O=C(O)c1ccc(CN(Cc2ccccc2)Cc2ccc(C(=O)O)cc2)cc1`, the EC50 in data set [3] (setting [6]) amounted to 29.6 µM.
Consider `COC(=O)c1ccc(CN(Cc2ccccc2)Cc2ccc(C(=O)OC)cc2)cc1` [Example 2f], for which, in data set [1], the “Viability (100 μM) 24 hours” value was determined as 0.92.
With `Nc1ccc(CN(Cc2ccc(N)cc2)Cc2ccc(N)cc2)cc1`, the EC50 in data set [3] (setting [6]) was determined as 22.2 µM.
For `O=C(O)c1csc(CN(CCC(c2ccccc2)c2ccccc2)Cc2ccc(F)cc2)n1`, the EC50 in data set [3] (setting [6]) stood at 18 µM.
Regarding `O=C(O)c1csc(CN(CCC(c2ccccc2)c2ccccc2)Cc2ccccc2F)n1`, the EC50 in data set [3] (setting [6]) stood at 10.6 µM.
For `Cc1ccc(NC(=O)Nc2ccc(CN(Cc3ccccc3)Cc3ccc(NC(=O)Nc4ccc(C)cc4)cc3)cc2)cc1`, in data set [3] (setting [6]), the EC50 was found to be 2.5 µM.
On to `Nc1ccc(CN(Cc2ccccc2)Cc2ccc(N)cc2)cc1`, for which the EC50 in data set [3] (setting [6]) is 3.8 µM.
